The values below come from US11180657B2, “Polysulfonated fluorescence dyes” (ATTO-TEC GmbH, priority 2017, dated 2021).

Data set [1] in a line: Absorption maximum of the dye. It counts as physicochemical. From the text: (§1) Examples of the compounds according to the invention are listed in Tables 2-6, where the structures as well as the absorption and fluorescence maxima are indicated. The spectra of selected compounds are shown FIGS. 5-18.
A short description of data set [2]: Fluorescence maximum of the dye. It counts as physicochemical. The conditions noted are these: solvent PBS pH 7.4.
Text: as §1

Marks after values point to notes of the source that are not given here.

For `CC1(C)C=C(CS(=O)(=O)O)c2cc3c(cc2N1CCCC(=O)O)[Si](C)(C)c1cc2c(cc1=C3C#N)C(CS(=O)(=O)O)=CC(C)(C)[N+]=2CCS(=O)(=O)O` [Compound 92], the λabs in data set [1] (solvent PBS pH 7.4) was 817^b nm. Besides, in data set [2], the λfl is recorded as 841^b nm.

Take `Cn1cc[n+](CCCCS(=O)(=O)O)c1C1=c2cc3c(cc2C(C)(C)c2cc4c(cc21)C(CS(=O)(=O)O)=CC(C)(C)N4CCCC(=O)O)=[N+](Cc1ccc(S(=O)(=O)O)cc1S(=O)(=O)O)CCC3` [Compound 57]: the λabs in data set [1] (solvent PBS pH 7.4) was 725^b nm. Further, the λfl in data set [2] is given as 749^b nm.

As for `O=C(O)c1ccccc1-c1c2cc/c(=N/CCc3ccc(S(=O)(=O)O)cc3S(=O)(=O)O)cc-2oc2cc(NCCc3ccc(S(=O)(=O)O)cc3S(=O)(=O)O)ccc12` [Compound 23], in data set [1] (solvent water/acetonitrile 1:1), the λabs is 532^c nm. Moreover, the λfl in data set [2] is on record as 559^b nm.

On to `CC1(C)c2cc3c(cc2C(c2c(F)c(F)c(SCCS(=O)(=O)O)c(F)c2F)=c2cc4c(cc21)=[N+](Cc1ccc(S(=O)(=O)O)cc1S(=O)(=O)O)C(C)(C)C=C4CS(=O)(=O)O)CCCN3CCCC(=O)O` [Compound 48], for which, in data set [1] (solvent PBS pH 7.4), the λabs is listed as 682^b nm. For the same molecule, in data set [2], the λfl was 705^b nm.

On to `CCN1c2cc3c(cc2C(CS(=O)(=O)O)=CC1(C)C)C(c1n(C)cc[n+]1CCCC(=O)O)=c1cc2c(cc1C3(C)C)=[N+](Cc1ccc(S(=O)(=O)O)cc1S(=O)(=O)O)CCC2` [Compound 56], for which the λabs in data set [1] (solvent PBS pH 7.4) is recorded as 724^b nm. The λfl in data set [2] is 746^b nm.

Take `CN(C)c1ccc2c(c1)C(C)(C)c1cc3c(cc1=C2c1c(F)c(F)c(SCC(=O)O)c(F)c1F)CCC[N+]=3Cc1ccc(S(=O)(=O)O)cc1S(=O)(=O)O` [Compound 38]: the λabs in data set [1] (solvent PBS pH 7.4) is recorded as 646^b nm. Besides, the λfl in data set [2] is 667^b nm.

As to `CC1(C)c2c(cc3c4c2CCCN4CCC3)C(c2c(F)c(F)c(SCC(=O)O)c(F)c2F)=c2cc3c(cc21)=[N+](Cc1ccc(S(=O)(=O)O)cc1S(=O)(=O)O)CCC3` [Compound 36], the λabs in data set [1] (solvent PBS pH 7.4) was 656^b nm. The λfl in data set [2] is 677^b nm.

As for `CCN(CS(=O)(=O)O)c1ccc2c(c1)[Si](C)(C)C1=C/C(=[N+](/CC)CS(=O)(=O)O)C=CC1=C2NCCS(=O)(=O)O` [Compound 87], the λabs in data set [1] (solvent PBS pH 7.4) was 472^b nm. For the same molecule, the λfl in data set [2] is 605^b nm.

With `CN(CCCC(=O)O)C(=O)c1ccccc1-c1c2cc/c(=N/CCc3ccc(S(=O)(=O)O)cc3S(=O)(=O)O)cc-2oc2cc(NCCc3ccc(S(=O)(=O)O)cc3S(=O)(=O)O)ccc12` [Compound 24], the λabs in data set [1] (solvent water/acetonitrile 1:1) was 539^c nm. Further, in data set [2], the λfl is recorded as 561^b nm.

For `Cn1cc[n+](CCCCS(=O)(=O)O)c1C1=c2cc3c(cc2C(C)(C)c2cc4c(cc21)C(CS(=O)(=O)O)=CC(C)(C)N4CCS(=O)(=O)O)=[N+](CCCC(=O)O)C(C)(C)C=C3CS(=O)(=O)O` [Compound 59], the λabs in data set [1] (solvent PBS pH 7.4) is 739^b nm. Moreover, the λfl in data set [2] is reported as 771^b nm.

Consider `CCN1c2cc3c(cc2C(CS(=O)(=O)O)CC1(C)C)C(c1ccccc1C(=O)N(C)CCCC(=O)O)=c1cc2c(cc1C3(C)C)=[N+](Cc1ccc(S(=O)(=O)O)cc1S(=O)(=O)O)C(C)(C)CC2CS(=O)(=O)O` (centres unmarked) [Compound 66], for which the λabs in data set [1] (solvent PBS pH 7.4) is 645^b nm. The λfl in data set [2] is 665^b nm.

For `CN(CCCC(=O)O)C(=O)c1ccccc1-c1c2ccc(=[N+](Cc3ccc(S(=O)(=O)O)cc3S(=O)(=O)O)Cc3ccc(S(=O)(=O)O)cc3S(=O)(=O)O)cc-2oc2cc(N(Cc3ccc(S(=O)(=O)O)cc3S(=O)(=O)O)Cc3ccc(S(=O)(=O)O)cc3S(=O)(=O)O)ccc12` [Compound 9], in data set [1] (solvent water/acetonitrile 1:1), the λabs is 550^c nm. The λfl in data set [2] was 572^b nm.

Turning to `O=C(O)CN(CCS(=O)(=O)O)C(=O)c1ccccc1-c1c2cc/c(=N/Cc3ccc(S(=O)(=O)O)cc3S(=O)(=O)O)c(S(=O)(=O)O)c-2oc2c(S(=O)(=O)O)c(NCc3ccc(S(=O)(=O)O)cc3S(=O)(=O)O)ccc12` [Compound 30], the λabs in data set [1] (solvent water/acetonitrile 1:1) is reported as 536^c nm.

Consider `CN(CCCC(=O)O)C(=O)c1cc2ccccc2cc1-c1c2cc/c(=N/Cc3ccc(S(=O)(=O)O)cc3S(=O)(=O)O)c(S(=O)(=O)O)c-2oc2c(S(=O)(=O)O)c(NCc3ccc(S(=O)(=O)O)cc3S(=O)(=O)O)ccc12.CS(=O)(=O)O.CS(=O)(=O)O` [Compound 33], for which the λabs in data set [1] (solvent water/acetonitrile 1:1) is 539^c nm.

As to `Cc1cc(=O)n(CC(=O)O)c2cc(Nc3nc(Cl)nc(NCCS(=O)(=O)O)n3)ccc12` [Compound 114], the λabs in data set [1] (solvent PBS pH 7.4) is on record as 338^b nm. Besides, the λfl in data set [2] is listed as 385^b nm.

As for `CC1(C)CC(CS(=O)(=O)O)c2cc3c(cc2=[N+]1Cc1ccc(S(=O)(=O)O)cc1S(=O)(=O)O)Oc1cc(N)c2cc(S(=O)(=O)O)ccc2c1N=3` (centres unmarked) [Compound 101], the λabs in data set [1] (solvent PBS pH 7.4) is reported as 647^b nm. The λfl in data set [2] is reported as 678^b nm.

Consider `CN(CCCC(=O)O)C(=O)c1ccccc1-c1c2cc/c(=N/CCc3ccc(S(=O)(=O)O)cc3)cc-2oc2cc(NCCc3ccc(S(=O)(=O)O)cc3)ccc12` [Compound 21], for which, in data set [1] (solvent water/acetonitrile 1:1), the λabs is 538^c nm. For the same molecule, in data set [2], the λfl is on record as 559^b nm.

Consider `CCN(CS(=O)(=O)O)c1ccc2c(c1)[Si](C)(C)C1=C/C(=[N+](/CC)CS(=O)(=O)O)C=CC1=C2NCC(S(=O)(=O)O)S(=O)(=O)O` [Compound 88], for which, in data set [1] (solvent PBS pH 7.4), the λabs is recorded as 471^b nm. In addition, in data set [2], the λfl was 605^b nm.

`CN(CCCC(=O)O)C(=O)c1ccccc1-c1c2cc/c(=N/Cc3ccc(S(=O)(=O)O)cc3S(=O)(=O)O)cc-2oc2cc(NCc3ccc(S(=O)(=O)O)cc3S(=O)(=O)O)ccc12` [Compound 13]: the λabs in data set [1] (solvent water/acetonitrile 1:1) is 534^c nm. Also, the λfl in data set [2] was 555^b nm.

Take `CN(CCCC(=O)O)C(=O)c1ccccc1C1=C2C=C/C(=[N+](\C)Cc3ccc(S(=O)(=O)O)cc3S(=O)(=O)O)C=C2[Si](C)(C)c2cc(N(C)Cc3ccc(S(=O)(=O)O)cc3S(=O)(=O)O)ccc21` [Compound 69]: the λabs in data set [1] (solvent PBS pH 7.4) was 658^b nm. Further, in data set [2], the λfl is recorded as 680^b nm.

With `CN(CCCC(=O)ON1C(=O)CCC1=O)C(=O)c1ccccc1-c1c2cc(S(=O)(=O)O)/c(=N/Cc3ccc(S(=O)(=O)O)cc3S(=O)(=O)O)cc-2oc2cc(NCc3ccc(S(=O)(=O)O)cc3S(=O)(=O)O)c(S(=O)(=O)O)cc12` [Compound 7], the λabs in data set [1] (solvent water/acetonitrile 1:1) is recorded as 534^c nm. Besides, the λfl in data set [2] is 559^b nm.

`CC1(C)c2cc3c(cc2C(c2c(Cl)cccc2Cl)=c2cc4c(cc21)=[N+](Cc1ccc(S(=O)(=O)O)cc1S(=O)(=O)O)C(C)(C)C=C4CS(=O)(=O)O)CCCN3CCCC(=O)O` [Compound 52]: the λabs in data set [1] (solvent PBS pH 7.4) is recorded as 673^b nm. For the same molecule, the λfl in data set [2] is given as 698^b nm.

For the molecule `CN(Cc1ccc(S(=O)(=O)O)cc1S(=O)(=O)O)c1ccc2c(c1)C(C)(C)C1=C/C(=[N+](/C)Cc3ccc(S(=O)(=O)O)cc3S(=O)(=O)O)C=CC1=C2c1c(F)c(F)c(F)c(F)c1F` [Compound 46], in data set [1] (solvent PBS pH 7.4), the λabs is 646^b nm. In addition, in data set [2], the λfl is listed as 666^b nm.

Consider `CN(C)c1ccc2c(c1)C(C)(C)c1cc3c(cc1=C2NCCCCCC(=O)O)CCC[N+]=3Cc1ccc(S(=O)(=O)O)cc1S(=O)(=O)O` [Compound 78], for which the λabs in data set [1] (solvent PBS pH 7.4) was determined as 463 nm; in data set [1] (solvent ethanol), 468 nm. The λfl in data set [2] is reported as 609^b nm.

On to `C[Si]1(C)c2cc3c(cc2C(NCCCC(=O)O)=c2cc4c(cc21)=[N+](Cc1ccc(S(=O)(=O)O)cc1S(=O)(=O)O)CCC4)CCCN3Cc1ccc(S(=O)(=O)O)cc1S(=O)(=O)O` [Compound 95], for which the λabs in data set [1] (solvent PBS pH 7.4) is 489^b nm. The λfl in data set [2] is recorded as 661^b nm.

Turning to `CC1(C)c2cc3c(cc2C(NCC(S(=O)(=O)O)S(=O)(=O)O)=c2cc4c(cc21)=[N+](Cc1ccc(S(=O)(=O)O)cc1S(=O)(=O)O)C(C)(C)C=C4CS(=O)(=O)O)C(CS(=O)(=O)O)=CC(C)(C)N3CCCC(=O)O` [Compound 86], the λabs in data set [1] (solvent PBS pH 7.4) was 502^b nm. The λfl in data set [2] is listed as 660^b nm.

`CC1(C)c2cc3c(cc2C(NCC(S(=O)(=O)O)S(=O)(=O)O)=c2cc4c(cc21)=[N+](Cc1ccc(S(=O)(=O)O)cc1S(=O)(=O)O)C(C)(C)C=C4CS(=O)(=O)O)CCCN3CCCC(=O)O` [Compound 84]: the λabs in data set [1] (solvent PBS pH 7.4) is listed as 490^b nm. In data set [2], the λfl is 644^b nm.

As to `CC1(C)c2cc3c(cc2N=c2cc4c(cc21)=[N+](CCCC(=O)O)C(C)(C)C=C4CS(=O)(=O)O)CCCN3Cc1ccc(S(=O)(=O)O)cc1S(=O)(=O)O` [Compound 103], in data set [1] (solvent PBS pH 7.4), the λabs was 740^b nm. Besides, the λfl in data set [2] is on record as 761^b nm.

In the case of `CC1(C)c2c(cc3c4c2CCCN4CCC3)C(C#N)=c2cc3c(cc21)=[N+](Cc1ccc(S(=O)(=O)O)cc1S(=O)(=O)O)CCC3` [Compound 80], the λabs in data set [1] (solvent PBS pH 7.4) is reported as 739^b nm. In data set [2], the λfl was 761^b nm.

With `CN(CCCC(=O)O)C(=O)c1ccccc1-c1c2cc/c(=N/Cc3ccc(S(=O)(=O)O)cc3S(=O)(=O)O)c(S(=O)(=O)O)c-2oc2c(S(=O)(=O)O)c(NCc3ccc(S(=O)(=O)O)cc3S(=O)(=O)O)ccc12.CS(=O)(=O)O` [Compound 31], the λabs in data set [1] (solvent water/acetonitrile 1:1) is listed as 532^c nm.

Consider `CN(CCCC(=O)O)C(=O)c1ccccc1-c1c2cc/c(=N/Cc3ccc(S(=O)(=O)O)cc3S(=O)(=O)O)c(S(=O)(=O)O)c-2oc2c(S(=O)(=O)O)c(NCc3ccc(S(=O)(=O)O)cc3S(=O)(=O)O)ccc12` [Compound 29], for which the λabs in data set [1] (solvent water/acetonitrile 1:1) is 531^c nm.

`CN(CCCC(=O)O)C(=O)c1ccccc1-c1c2cc/c(=N/Cc3cc(S(=O)(=O)O)c4cc(S(=O)(=O)O)cc(S(=O)(=O)O)c4c3)c(S(=O)(=O)O)c-2oc2c(S(=O)(=O)O)c(NCc3cc(S(=O)(=O)O)c4cc(S(=O)(=O)O)cc(S(=O)(=O)O)c4c3)ccc12` [Compound 34]: in data set [1] (solvent PBS pH 7.4), the λabs is 530^b nm.

As for `CN(CCCC(=O)O)C(=O)c1ccccc1C1=c2cc3c(cc2Oc2cc4c(cc21)CCCN4Cc1ccc(S(=O)(=O)O)cc1S(=O)(=O)O)=[N+](Cc1ccc(S(=O)(=O)O)cc1S(=O)(=O)O)CCC3` [Compound 28], in data set [1] (solvent water/acetonitrile 1:1), the λabs was 567^c nm.

For `CN(CCCC(=O)O)C(=O)c1c(-c2c3cc/c(=N/Cc4ccc(S(=O)(=O)O)cc4S(=O)(=O)O)c(S(=O)(=O)O)c-3oc3c(S(=O)(=O)O)c(NCc4ccc(S(=O)(=O)O)cc4S(=O)(=O)O)ccc23)cc(S(=O)(=O)O)cc1S(=O)(=O)O` [Compound 32], the λabs in data set [1] (solvent water/acetonitrile 1:1) is on record as 530^c nm.
